Source: US20190352358A1, “COMPOUNDS, COMPOSITIONS AND USES THEREOF FOR IMPROVEMENT OF BONE DISORDERS” (ALIZE PHARMA III SAS, priority 2017, published 2019)
Each block holds one compound with its values, some of them ahead of it. Residues, ends and D or L forms follow the SMILES beside them. No end group written: not given here. *: point of attachment. Arachidoyl = CCCCCCCCCCCCCCCCCCCC(=O)*; Stearoyl = CCCCCCCCCCCCCCCCCC(=O)*; Palmitoyl = CCCCCCCCCCCCCCCC(=O)*; Myristoyl = CCCCCCCCCCCCCC(=O)*

Columns and labels:
[1] = Pharmacokinetics in male Sprague Dawley rats after intravenous and subcutaneous injection (Example 10); assay type: in vivo; conditions: 1 μmol net peptide/kg, rat; for exposure after administration by either dose route (in words): iv and sc
Description: The peptides were reconstituted in saline (0.9% NaCl). Three male Sprague Dawley rats were used per group. Intravenous doses were administered into a lateral tail vein at the dose of 1 μmol net peptide/kg. Subcutaneous doses were administered into the right flank of each animal, also at the dose of 1 μmol net peptide/kg. Following dosing, serial whole blood samples (ca. 0.25 mL) were collected from a lateral tail vein into K2EDTA treated containers. Following each blood sample collection, samples were placed into a cooling block at 4° C. Samples were collected prior to dosing then at 2, 5, 15 and 30 minutes then 1, 2, 4, 6 and 8 and 24 hours post dose for intravenous injection and at 15 and 30 minutes then 1, 2, 4, 6, 8 and 24 hours post dose for subcutaneous injection.
Blood samples were centrifuged at 10000×g for 2 minutes at 4° C. and resultant plasma aspirated off into clean fully, labelled tubes. Plasma samples were snap frozen following aspiration then stored at −80° C. Peptides were extracted and analyzed as described in Example 9. The limits of quantification of these methods were 0.001 nmol/mL for cyclic HBD1 (3-11) and HBD1 (3-11) and 0.003 nmol/mL for HBD1 (1-13). All values below these limits of quantification were considered as zero.

[2] = Pharmacokinetics of acylated analogs in male Sprague Dawley rats after subcutaneous injection (Example 11); assay type: in vivo; parameters: AUC(0-t): concentration or dose not given beside the values; conditions: sc, rat; for AUC(0-t) / Cmax / Tmax: male, Sprague Dawley, plasma; for AUC(0-t) / Cmax / Tmax / Tlast (last time point with detectable peptide): Table 24
Description: The peptides were reconstituted in saline (0.9% NaCl). Three male Sprague Dawley rats (approximately 6 weeks of age) were used per group. Subcutaneous doses were administered into the right flank of each animal […]. Following dosing, serial whole blood samples (ca. 0.3 mL) were collected from retro-orbital sinus into K2EDTA treated containers. Following each blood sample collection, samples were placed into a cooling block at 4° C. Samples were collected prior to dosing then at 15 and 30 minutes then 1, 2, 4, 6, 8 and 24 hours post dose for subcutaneous injection. Blood samples were centrifuged at 3500×rpm for 10 minutes at 4° C. and resultant plasma aspirated off into clean fully, labelled tubes. Plasma samples were snap frozen following aspiration then stored at −80° C. The peptides were extracted with acetonitrile:water (75:25, v/v) and analyzed using developed LC-MS/MS methods as described in Example 9. The limits of detection of these methods are 0.003 nmol/mL for HBD1 (1-13) with palmitic acid at the N-terminus (C16:0), 0.0008 nmol/mL for HBD1 (3-11) with palmitic acid at the N-terminus (C16:0), 0.0070 nmol/mL for HBD1 (3-11) with stearic acid at the N-terminus (C18:0), and 0.0015 nmol/mL for HBD1 (3-11) with myristic acid at the N-terminus (C14:0), HBD1 (3-11) with arachidic acid at the N-terminus (C20:0), HBD1 (3-11) with palmitic diacid at the N-terminus (C16:0-diacid), HBD1 (3-11) with palmitic acid at the C-terminus (C16:0). All values below these limits of quantification were considered as zero.

[3] = Stability of HBD1 fragments in human plasma; assay type: in vitro ADME; conditions: for Remaining parent peptide in human plasma 48 hours post spike / remaining at 24 h, 1 μg/mL / remaining at 48 h, 1 μg/mL / Remaining parent peptide in human plasma 24 hours post spike: spiked at 1 μg/mL, 37° C.; for stability in human plasma (in words): 24 and 48 hours incubation at 37° C.; for remaining at 24 h, 1 μg/mL / remaining at 48 h, 1 μg/mL: human, human K2EDTA plasma; for remaining at 24 h, 1 μg/mL: read-out: Remaining parent peptide in human plasma 24 hours post spike; for remaining at 48 h, 1 μg/mL: read-out: Remaining parent peptide in human plasma 48 hours post spike
Description: The peptides were spiked at 1 μg/mL (peptide backbone) into pre-warmed human K2EDTA plasma (at 37° C.) and incubated for up to 48 hours. Aliquots of plasma were extracted at specific time points (0, 24 and 48 hours post spike). Extraction was performed with acetonitrile:water (75:25, v/v) for HBD1 (1-13), HBD1 (1-13) with palmitic acid at the N-terminus (C16:0), HBD1 (3-11) with palmitic acid at the N-terminus (C16:0)) and HBD1 (3-11) with stearic acid at the N-terminus (C18:0) or with acetonitrile:water:formic acid (75:25:0.1, v/v/v) for HBD1 (3-11) and cyclic HBD1 (3-11). The peptides were analyzed using developed LC (C18 reverse phase column)—positive ion electrospray MS/MS methods specific to each peptide. The peak area at each time point was expressed as a percentage of the value obtained for the t=0 minutes time point.

[4] = test system: MC-3T3 E1 clone 4 (CL4) osteoblast cells; assay: Osteocalcin expression during in vitro osteoblast differentiation, acylated and cyclic analogs (Example 7); assay type: cell-based; conditions: Table 18; test peptide 1 μg/L; 18-21 day interval
Description: Each acylated peptide was tested in a biologic assay measuring its ability to stimulate differentiation of osteoblast cells over a 18-21 day interval as assessed by the stimulation of osteocalcin protein synthesis. MC-3T3 E1 clone 4 (CL4) osteoblast cells were obtained from ATCC (Manassas, Va., USA). Cells were cultured in α-MEM containing 10% fetal bovine serum (FBS; Thermo Fisher Scientific, Pittsburgh, Pa., USA). After confluency, culture medium was changed to differentiation medium (DM), which contained 10% FBS plus 50 μg/mL ascorbic acid and 4 mM β-glycerol phosphate, with or without a test peptide (1 μg/L). Fresh DM, with or without test peptide, was applied every 72 hours. The cell monolayers were lysed in a modified radioimmunoprecipitation assay (RIPA) buffer. Total cellular protein in the lysates was determined using BCA (Thermo Fisher Scientific, Rockford, Ill., USA). Cell proteins are separated on SDS-PAGE gel and transferred on PVDF membrane for analysis. Osteocalcin detection was performed using anti-osteocalcin antibody at 1:200 dilution (Santa Cruz Biotechnology, Inc, Santa Cruz, Calif., USA) and visualized using enhanced chemiluminescence (Thermo Fisher Scientific, Rockford, Ill., USA).
In a separate experiment, the effect of cyclization was examined on of the HBD1 (3-11) peptide. The cyclic HBD1 (3-11) was synthetized and tested on the in vitro osteoblast differentiation assay.

[5] = male, Sprague Dawley, plasma, iv
[6] = male, Sprague Dawley, plasma, sc

Compound: CCCCCCCCCCCCCCCC(=O)N[C@@H](Cc1c[nH]cn1)C(=O)N[C@@H](CC(C)C)C(=O)NCC(=O)N[C@@H](CC(C)C)C(=O)N[C@@H](CCC(=O)O)C(=O)N[C@@H](CCC(=O)O)C(=O)N1CCC[C@H]1C(=O)N[C@@H](CCCCN)C(=O)N[C@@H](CCCCN)C(=O)O [SEQ ID NO: 72, C16:0-HLGLEEPKK] (Palmitoyl-HLGLEEPKK-OH; C-terminus assumed)
bioavailability ([1]; male, Sprague Dawley, plasma, subcutaneous, sc vs iv, read-out: F (bioavailability)): 35%
AUC(0-t) [1, 5]: 4460 nM·h
Cmax [1, 5]: 7.89 µM
Tmax [1, 5]: 0.033 h
AUC(0-t) [1, 6]: 1570 nM·h
Cmax [1, 6]: 0.41 µM
Tmax [1, 6]: 1 h

Compound: CCCCCCCCCCCCCCCCCCCC(=O)N[C@@H](Cc1c[nH]cn1)C(=O)N[C@@H](CC(C)C)C(=O)NCC(=O)N[C@@H](CC(C)C)C(=O)N[C@@H](CCC(=O)O)C(=O)N[C@@H](CCC(=O)O)C(=O)N1CCC[C@H]1C(=O)N[C@@H](CCCCN)C(=O)N[C@@H](CCCCN)C(=O)O [SEQ ID NO: 74, C20:0-HLGLEEPKK] (Arachidoyl-HLGLEEPKK-OH; C-terminus assumed)
peptide exposure compared among acylated peptides (in words) [2]: lower exposure than HBD1 (3-11) with stearic acid at the N-terminus (C18:0)

Compound: CCCCCCCCCCCCCCCC(=O)N[C@@H](Cc1c[nH]cn1)C(=O)N[C@@H](Cc1c[nH]cn1)C(=O)N[C@@H](CC(C)C)C(=O)NCC(=O)N[C@@H](CC(C)C)C(=O)N[C@@H](CCC(=O)O)C(=O)N[C@@H](CCC(=O)O)C(=O)N1CCC[C@H]1C(=O)N[C@@H](CCCCN)C(=O)N[C@@H](CCCCN)C(=O)O [compound 68] (Palmitoyl-HHLGLEEPKK-OH; C-terminus assumed)
Fold increase vs DM ± SE [4]: 2.52 ± 0.52 fold

Compound: CCCCCCCCCCCCCCCCCC(=O)N[C@@H](Cc1c[nH]cn1)C(=O)N[C@@H](Cc1c[nH]cn1)C(=O)N[C@@H](CC(C)C)C(=O)NCC(=O)N[C@@H](CC(C)C)C(=O)N[C@@H](CCC(=O)O)C(=O)N[C@@H](CCC(=O)O)C(=O)N1CCC[C@H]1C(=O)N[C@@H](CCCCN)C(=O)N[C@@H](CCCCN)C(=O)O [compound 69] (Stearoyl-HHLGLEEPKK-OH; C-terminus assumed)
Fold increase vs DM ± SE [4]: 2.48 ± 0.27 fold

Compound: CCCCCCCCCCCCCCCCCCCC(=O)N[C@@H](Cc1c[nH]cn1)C(=O)N[C@@H](Cc1c[nH]cn1)C(=O)N[C@@H](CC(C)C)C(=O)NCC(=O)N[C@@H](CC(C)C)C(=O)N[C@@H](CCC(=O)O)C(=O)N[C@@H](CCC(=O)O)C(=O)N1CCC[C@H]1C(=O)N[C@@H](CCCCN)C(=O)N[C@@H](CCCCN)C(=O)O [compound 70] (Arachidoyl-HHLGLEEPKK-OH; C-terminus assumed)
Fold increase vs DM ± SE [4]: 2.11 ± 0.11 fold

Compound: HLGLEEPKK [SEQ ID NO: 10, HLGLEEPKK]
stability in human plasma (in words) [3]: very stable
Remaining parent peptide in human plasma 24 hours post spike [3]: 92%
Remaining parent peptide in human plasma 48 hours post spike [3]: 87%
exposure after administration by either dose route (in words) [1]: no quantifiable exposure

Compound: KHHLGLEEPKKLR [SEQ ID NO: 1, KHHLGLEEPKKLR, reference compound]
stability in human plasma (in words) [3]: markedly degraded
Remaining parent peptide in human plasma 24 hours post spike [3]: 29%
Remaining parent peptide in human plasma 48 hours post spike [3]: 18%
exposure after administration by either dose route (in words) [1]: no quantifiable exposure

The next lines start with results.

Remaining parent peptide in human plasma 48 hours post spike [3]: 52%
Compound: CCCCCCCCCCCCCCCC(=O)N[C@@H](CCCCN)C(=O)N[C@@H](Cc1c[nH]cn1)C(=O)N[C@@H](Cc1c[nH]cn1)C(=O)N[C@@H](CC(C)C)C(=O)NCC(=O)N[C@@H](CC(C)C)C(=O)N[C@@H](CCC(=O)O)C(=O)N[C@@H](CCC(=O)O)C(=O)N1CCC[C@H]1C(=O)N[C@@H](CCCCN)C(=O)N[C@@H](CCCCN)C(=O)N[C@@H](CC(C)C)C(=O)N[C@@H](CCCNC(=N)N)C(=O)O [SEQ ID NO: 78, C16:0-KHHLGLEEPKKLR] (Palmitoyl-KHHLGLEEPKKLR-OH; C-terminus assumed)

AUC(0-t) [2]: 1110 nM·h
Cmax [2]: 0.24 µM
Tmax [2]: 1 h
Tlast (last time point with detectable peptide) [2]: 6 h
Compound: CCCCCCCCCCCCCC(=O)N[C@@H](Cc1c[nH]cn1)C(=O)N[C@@H](CC(C)C)C(=O)NCC(=O)N[C@@H](CC(C)C)C(=O)N[C@@H](CCC(=O)O)C(=O)N[C@@H](CCC(=O)O)C(=O)N1CCC[C@H]1C(=O)N[C@@H](CCCCN)C(=O)N[C@@H](CCCCN)C(=O)O [compound 71] (Myristoyl-HLGLEEPKK-OH; C-terminus assumed)
Fold increase vs DM ± SE [4]: 1.98 ± 0.22 fold

stability in human plasma (in words) [3]: similar
remaining at 24 h, 1 μg/mL [3]: 94%
remaining at 48 h, 1 μg/mL [3]: 87%
AUC(0-t) [2]: 1340 nM·h
Cmax [2]: 0.35 µM
Tmax [2]: 1 h
Tlast (last time point with detectable peptide) [2]: 8 h
Compound: CCCCCCCCCCCCCCCC(=O)N[C@@H](Cc1c[nH]cn1)C(=O)N[C@@H](CC(C)C)C(=O)NCC(=O)N[C@@H](CC(C)C)C(=O)N[C@@H](CCC(=O)O)C(=O)N[C@@H](CCC(=O)O)C(=O)N1CCC[C@H]1C(=O)N[C@@H](CCCCN)C(=O)N[C@@H](CCCCN)C(=O)O [compound 72] (Palmitoyl-HLGLEEPKK-OH)

stability in human plasma (in words) [3]: similar
remaining at 24 h, 1 μg/mL [3]: 98%
remaining at 48 h, 1 μg/mL [3]: 95%
Compound: CC(C)C[C@@H]1NC(=O)CNC(=O)[C@H](CC(C)C)NC(=O)[C@H](Cc2c[nH]cn2)NC(=O)[C@H](CCCCN)NC(=O)[C@H](CCCCN)NC(=O)[C@@H]2CCCN2C(=O)[C@H](CCC(=O)O)NC(=O)[C@H](CCC(=O)O)NC1=O [compound 77] (cyclo(EEPKKHLGL))

remaining at 24 h, 1 μg/mL [3]: 58%
remaining at 48 h, 1 μg/mL [3]: 52%
AUC(0-t) [2]: 10 nM·h
Cmax [2]: 0.01 µM
Tmax [2]: 6 h
Tlast (last time point with detectable peptide) [2]: 8 h
Compound: CCCCCCCCCCCCCCCC(=O)N[C@@H](CCCCN)C(=O)N[C@@H](Cc1c[nH]cn1)C(=O)N[C@@H](Cc1c[nH]cn1)C(=O)N[C@@H](CC(C)C)C(=O)NCC(=O)N[C@@H](CC(C)C)C(=O)N[C@@H](CCC(=O)O)C(=O)N[C@@H](CCC(=O)O)C(=O)N1CCC[C@H]1C(=O)N[C@@H](CCCCN)C(=O)N[C@@H](CCCCN)C(=O)N[C@@H](CC(C)C)C(=O)N[C@@H](CCCNC(=N)N)C(=O)O [compound 78] (Palmitoyl-KHHLGLEEPKKLR-OH)

remaining at 24 h, 1 μg/mL [3]: 92%
remaining at 48 h, 1 μg/mL [3]: 87%
Compound: HLGLEEPKK [compound 10]

remaining at 24 h, 1 μg/mL [3]: 29%
remaining at 48 h, 1 μg/mL [3]: 18%
Compound: KHHLGLEEPKKLR [compound 1]
